# Test results: US5034380A, “Alkoxymethylidene epipodophyllotoxin glucosides” (Bristol-Myers Squibb Company, priority 1989, dated 1991)
# Experiments:
# [1] = system: murine transplantable P388 leukemia; experiment: in vivo antitumor activity against P388 leukemia in mice (single ip dose, median survival time); design: species or system murine (female CDF1 mice); conditions: Q1D × 1, ip; for T/C % of MST: day 1
# Experimental: Representative compounds of the present invention were evaluated for antitumor activity against murine transplantable P388 leukemia. Female CDF1 mice were inoculated intraperitoneally with approximately 10^6 P388 leukemic cells (day 0). […] The percent increase of median survival time (MST) of treated animals over that of untreated control animals was determined and reported as % T/C. Compounds showing % T/C values of 125 or greater are considered to have significant antitumor activity.
# B16-F10 murine melanoma = experiment: in vitro cytotoxicity, B16-F10 murine melanoma; type: cell-based; conditions: Mus musculus; B16-F10, 72 hours, neutral red
# Experimental: (§1) Representative compounds of the present invention were also tested in in vitro cytotoxicity assays against four tumor cell lines. These cell lines were grown and maintained at 37° C. under a humidified atmosphere in a 5% CO2 incubator:
# B16-F10 murine melanoma in Eagle's MEM medium (Nissui) containing kanamycin (60 μg/ml) and supplemented with heat-inactivated fetal calf serum (FCS, 10 %) and non-essential amino acids (0.6 %);
# (§2) In experiments using the B16-F10 and Moser cell lines, exponentially growing cells were harvested, counted and suspended in the culture medium at a concentration of 1.5×10^4 and 3×10^4 cells/ml, respectively. Twenty-four hours after planting cell suspension (180 μl) into wells of a 96-well microtiter plate, test materials (20 μl) were added to the wells and the plates were incubated for 72 hours. Cytotoxicity against the tumor cells was colorimetrically determined at 540 nm after staining viable cells with neutral red solution. For the K562 and K562/ADM cell lines, 900 μl of the cell suspension (8×10^4 cells/ml) was incubated with test materials (100 μl) at 37° C., 5% CO2 for 48 hours in a 24-well tissue culture plate. Cytotoxicity was determined by counting the number of cells using a cell counter.
# [2] = system: Moser human colon carcinoma; experiment: in vitro cytotoxicity, Moser human colon carcinoma; type: cell-based; conditions: 72 hours, neutral red
# Experimental: as §1
# Moser human colon carcinoma in Eagle's MEM medium supplemented with FCS (10 %);
# as §2
# [3] = system: K562/ADM, an adriamycin-resistant subline; experiment: in vitro cytotoxicity, K562/ADM adriamycin-resistant subline; type: cell-based; conditions: Homo sapiens, 48 hours, cell counter
# Experimental: as §1
# (§3) K562 human myelogenous leukemia and K562/ADM, an adriamycin-resistant subline which was kindly provided by Dr. Takashi Tsuruo (University of Tokyo) in RPMI 1640 medium (Nissui) supplemented with FCS (10 %), penicillin (100 U/ml) and streptomycin (100 μg/ml).
# as §2
# [4] = system: K562 human myelogenous leukemia; experiment: in vitro cytotoxicity, K562 human myelogenous leukemia; type: cell-based; conditions: K562, 48 hours, cell counter
# Experimental: as §1, §3, §2
SMILES,T/C % of MST ([1]; 0.1 mg/kg),T/C % of MST ([1]; 0.3 mg/kg),T/C % of MST ([1]; 1 mg/kg),T/C % of MST ([1]; 3 mg/kg),T/C % of MST ([1]; 10 mg/kg),T/C % of MST ([1]; 30 mg/kg),T/C % of MST ([1]; 60 mg/kg),T/C % of MST ([1]; 120 mg/kg),IC50 (B16-F10 murine melanoma),IC50 [2],IC50 [3],IC50 [4],Number of survivors/tested on day 50 ([1]; 120 mg/kg)
"COc1cc([C@@H]2c3cc4c(cc3[C@@H](O[C@@H]3O[C@@H]5CO[C@H](OC)O[C@H]5[C@H](O)[C@H]3O)[C@H]3COC(=O)[C@H]23)OCO4)cc(OC)c1O [Compound 1a, 4'-Demethyl-4-O-(4,6-O-β-Methoxymethylidene-β-D-Glucopyranosyl)Epipodophyllotoxin]",115%,132%,137%,142%,149%,166%,195%,248%,0.094 µg/mL,,,,
"COc1cc([C@@H]2c3cc4c(cc3[C@@H](O[C@@H]3O[C@@H]5CO[C@@H](OC)O[C@H]5[C@H](O)[C@H]3O)[C@H]3COC(=O)[C@H]23)OCO4)cc(OC)c1O [Compound 1b, 4'-Demethyl-4-O-(4,6-O-α-Methoxymethylidene-β-D-Glucopyranosyl)EpipodophYllotoxin]",110%,120%,130%,145%,165%,180%,,,0.27 µg/mL,3.4 µg/mL,,,
"CCO[C@H]1OC[C@H]2O[C@@H](O[C@@H]3c4cc5c(cc4[C@@H](c4cc(OC)c(O)c(OC)c4)[C@H]4C(=O)OC[C@@H]43)OCO5)[C@H](O)[C@@H](O)[C@@H]2O1 [Compound 2a, 4'-Demethyl-4-O-(4,6-O-β-Ethoxymethylidene-β-D-Glucopyranosyl)Epipodophyllotoxin]",114%,119%,124%,133%,148%,171%,181%,214%,0.11 µg/mL,1.7 µg/mL,> 50 µg/mL,0.065 µg/mL,
"CCO[C@@H]1OC[C@H]2O[C@@H](O[C@@H]3c4cc5c(cc4[C@@H](c4cc(OC)c(O)c(OC)c4)[C@H]4C(=O)OC[C@@H]43)OCO5)[C@H](O)[C@@H](O)[C@@H]2O1 [Compound 2b, 4'-Demethyl-4-O-(4,6-O-α-Ethoxymethylidene-α-D-Glucopyranosyl)Epipodophyllotoxin]",114%,114%,119%,138%,143%,167%,200%,219%,0.54 µg/mL,2.2 µg/mL,> 50 µg/mL,0.18 µg/mL,1/4
"COc1cc([C@@H]2c3cc4c(cc3[C@@H](O[C@@H]3O[C@@H]5COC(OC)(OC)O[C@H]5[C@H](O)[C@H]3O)[C@H]3COC(=O)[C@H]23)OCO4)cc(OC)c1O [Compound 3, 4'-Demethyl-4-O-(4,6-O-Dimethoxymethylidene-β-D-Glucopyranosyl)Epipodophyllotoxin]",125%,135%,135%,140%,170%,190%,170%,210%,2.7 µg/mL,3.3 µg/mL,,,1/4
"CCOC1(OCC)OC[C@H]2O[C@@H](O[C@@H]3c4cc5c(cc4[C@@H](c4cc(OC)c(O)c(OC)c4)[C@H]4C(=O)OC[C@@H]43)OCO5)[C@H](O)[C@@H](O)[C@@H]2O1 [Compound 4, 4'-Demethyl-4-O-(4,6-Diethoxymethylidene-β-D-Glucopvranosyl)Epipodophyllotoxin]",100%,109%,127%,132%,136%,145%,150%,182%,7.3 µg/mL,3 µg/mL,32 µg/mL,0.082 µg/mL,
"COc1cc([C@@H]2c3cc4c(cc3[C@@H](O[C@@H]3O[C@@H]5CO[C@@H](C)O[C@H]5[C@H](O)[C@H]3O)[C@H]3COC(=O)[C@H]23)OCO4)cc(OC)c1O [Etoposide, reference compound]",120%,130%,136%,143%,163%,185%,212%,288%,,,,,
